Measured values taken from patent publication US20100196282A1, “OPTICAL IMAGING AGENTS” (priority 2007, published 2010).
Where a SMILES comes first, the peptide text is derived from it. Bridges are numbered along the chain shown (N, C = ends). The star is where a group is joined. X8 = CC1=CC(C)(C)N(CCCS(=O)(=O)O)c2cc3c(cc21)/C(=C/C=C/C1=[N+](CCCS(=O)(=O)[O-])c2ccc(S(=O)(=O)O)cc2C1(C)CCCC(=O)*)C=C(C(C)(C)C)O3; X7 = CCN1c2cc3c(cc2C(C)=CC1(C)C)/C(=C/C=C/C1=[N+](CCCS(=O)(=O)[O-])c2ccc(S(=O)(=O)O)cc2C1(C)CCCC(=O)*)C=C(C(C)(C)C)O3; X9 = CCN(CC)c1ccc2c(c1)OC(C(C)(C)C)=C/C2=C\C=C\C1=[N+](CCCS(=O)(=O)[O-])c2ccc(S(=O)(=O)O)cc2C1(C)CCCC(=O)*

Each compound was assayed on HT-29 human colon carcinoma tumour (c-Met expressing) (assay: In vivo optical imaging of HT-29 tumour-bearing nude mice). Details: HT-29 s.c. tumours in female BALB c/A nude mice, i.v., 635 nm excitation.
Set-up: species or system mouse
Excerpt: Female BALB c/A nude (Born) mice were used in the study. The use of the animals was approved by the local ethics committee. BALB c/A nude is an inbred immunocompromised mouse strain with a high take rate for human tumours as compared to other nude mice strains. The mice were 8 weeks old upon arrival and with a body weight of approx. 20 grams at the start of the study. The animals were housed in individually ventilated cages (IVC, Scanbur BK) with HEPA filtered air. The animals had ad libitum access to “Rat and Mouse nr. 3 Breeding” diet (Scanbur BK) and tap water acidified by addition of HCl to a molar concentration of 1 mM (pH 3.0).
The colon cancer cell HT-29 is derived from human colon carcinomas and is reported to express c-Met according to Zeng et al [Clin. Exp. Metastasis, 21, 409-417. (2004)]. The cell line was proven to be tumorigenic when inoculated subcutaneously into nude mice [Flatmark et al, Eur. J. Cancer 40, 1593-1598 (2004)].
HT-29 cells were grown in McCoy's 5a medium (Sigma #M8403) supplemented with 10% fetal bovine serum and penicillin/streptomycin. Stocks were made at passage number four (P4) and frozen down for storage in liquid nitrogen at 10^7 cells/vial in the respective culture media containing 5% DMSO. On the day of the transplantation, the cells were thawed quickly in 37° C. water bath (approx. 2 min), washed and resuspended in PBS/2% serum (centrifugation at 1200 rpm for 10 min). Thorough mixing of cells in the vials was ensured every time the cells were aspirated into the dosing syringe. A volume of 0.1 ml of cell suspension was injected s.c. at the shoulder and at the back using a fine bore needle (25 G). The animals were then returned to their cages and the tumours were allowed to grow for 13-17 days. The animals were allowed an acclimatisation period of at least 5 days before the inoculation procedure.
All test substances were reconstituted with PBS from freeze-dried powder. A small stack of white printer paper was imaged to obtain a flat field image which was used to correct for illumination inhomogeneities.
For immobilisation during the optical imaging procedure, the animals were anaesthetized in a coaxial open mask to light surgical level anaesthesia with Isoflurane (typically 1.3-2%), using oxygen as the carrier gas. A small piece of skin (3-5 mm) was removed over parts of the tumour and adjacent muscle using a surgical forceps and fine scissors while the animal was anaesthetized. This was done to measure the signal from tumour and muscle without interference from the overlying skin tissue. The wound was covered by applying a liquid, non-fluorescent bandage spray (3M, MN, USA).
The respiration and body temperature of the animal was monitored with a BioVet system (m2m Imaging Corp, NJ, USA) using a pneumatic sensor underneath the animal and a rectal temperature probe. The BioVet system also supplied external heating using a heating mat set to 40° C. to sustain normal body temperature for the duration of the imaging procedure (2 hours). A Venflon catheter was placed in the tail vein for contrast agent administration. Each animal was given one contrast agent injection. The injected volume was 0.1 ml of test compound followed immediately by a 0.2 ml saline flush. Fluorescence images were acquired just prior to injection and then every 30 seconds for 2 hours.
Imaging was performed through a clinical laparoscope adapted to use a light source to excite the reporter and a filtering system to extract the fluorescence component. […]
For `CCN(CC)c1ccc2c(c1)OC(C(C)(C)C)=C/C2=C\C=C\C1=[N+](CCCS(=O)(=O)[O-])c2ccc(S(=O)(=O)O)cc2C1(C)CCCC(=O)NCCCC[C@H](NC(=O)CNC(=O)CNC(=O)CNC(=O)[C@@H](NC(=O)CNC(=O)[C@H](CCC(=O)O)NC(=O)[C@@H](NC(=O)[C@H](CCC(=O)O)NC(=O)[C@H](Cc1ccc(O)cc1)NC(=O)[C@@H]1CSSC[C@H](NC(=O)[C@H](CO)NC(=O)CNC(=O)[C@H](C)NC(C)=O)C(=O)N[C@@H](Cc2ccc(O)cc2)C(=O)N[C@H]2CSSC[C@H](NC(=O)[C@H](CCC(=O)O)NC(=O)[C@H](Cc3ccccc3)NC(=O)[C@H](CCCNC(=N)N)NC(=O)[C@@H]3CCCN3C(=O)[C@@H]3CCCN3C(=O)CNC(=O)[C@H](CO)NC2=O)C(=O)N[C@@H](Cc2c[nH]c3ccccc23)C(=O)N1)[C@@H](C)O)[C@@H](C)O)C(N)=O` (stereo partly drawn) [Compound 2] (Ac-AGSCYCSGPPRFECWCYETEGTGGGK(X9)-NH2; disulfide 4-16, 6-14), the “Average tumour:muscle ratio (2 hours p.i.)” value was 2.40.
`CCN1c2cc3c(cc2C(C)=CC1(C)C)/C(=C/C=C/C1=[N+](CCCS(=O)(=O)[O-])c2ccc(S(=O)(=O)O)cc2C1(C)CCCC(=O)NCCCC[C@H](NC(=O)CNC(=O)CNC(=O)CNC(=O)[C@@H](NC(=O)CNC(=O)[C@H](CCC(=O)O)NC(=O)[C@@H](NC(=O)[C@H](CCC(=O)O)NC(=O)[C@H](Cc1ccc(O)cc1)NC(=O)[C@@H]1CSSC[C@H](NC(=O)[C@H](CO)NC(=O)CNC(=O)[C@H](C)NC(C)=O)C(=O)N[C@@H](Cc2ccc(O)cc2)C(=O)N[C@H]2CSSC[C@H](NC(=O)[C@H](CCC(=O)O)NC(=O)[C@H](Cc4ccccc4)NC(=O)[C@H](CCCNC(=N)N)NC(=O)[C@@H]4CCCN4C(=O)[C@@H]4CCCN4C(=O)CNC(=O)[C@H](CO)NC2=O)C(=O)N[C@@H](Cc2c[nH]c4ccccc24)C(=O)N1)[C@@H](C)O)[C@@H](C)O)C(N)=O)C=C(C(C)(C)C)O3` (stereo partly drawn) [Compound 5] (Ac-AGSCYCSGPPRFECWCYETEGTGGGK(X7)-NH2; disulfide 4-16, 6-14) was tested, and the “Average tumour:muscle ratio (2 hours p.i.)” value was 1.22.
For `CC(=O)N[C@@H](C)C(=O)NCC(=O)N[C@@H](CO)C(=O)N[C@H]1CSSC[C@@H](C(=O)N[C@@H](Cc2ccc(O)cc2)C(=O)N[C@@H](CCC(=O)O)C(=O)N[C@H](C(=O)N[C@@H](CCC(=O)O)C(=O)NCC(=O)N[C@H](C(=O)NCC(=O)NCC(=O)NCC(=O)N[C@@H](CCCCNC(=O)CCCC2(C)C(/C=C/C=C3\C=C(C(C)(C)C)Oc4cc5c(cc43)C(C)=CC(C)(C)N5CCCS(=O)(=O)O)=[N+](CCCS(=O)(=O)[O-])c3ccc(S(=O)(=O)O)cc32)C(N)=O)[C@@H](C)O)[C@@H](C)O)NC(=O)[C@H](Cc2c[nH]c3ccccc23)NC(=O)[C@@H]2CSSC[C@H](NC(=O)[C@H](Cc3ccc(O)cc3)NC1=O)C(=O)N[C@@H](CO)C(=O)NCC(=O)N1CCC[C@H]1C(=O)N1CCC[C@H]1C(=O)N[C@@H](CCCNC(=N)N)C(=O)N[C@@H](Cc1ccccc1)C(=O)N[C@@H](CCC(=O)O)C(=O)N2` (stereo partly drawn) [Compound 6] (Ac-AGSCYCSGPPRFECWCYETEGTGGGK(X8)-NH2; disulfide 4-16, 6-14), the “Average tumour:muscle ratio (2 hours p.i.)” value was 1.57.
